Each block holds one compound with its values, some of them ahead of it.
What was measured:
FYN = target: T1, FYN (Homo sapiens, UniProt P06241); test: Invitrogen kinase assay FYN; type: biochemical
T1 construct: purchased Invitrogen
Protocol: (§1) The IC50 values were also determined for Compound (I-1) using an Invitrogen kinase assay. The results are shown in Table 2, along with comparison data with TL2-059.

LYN A = target: T2, LYN A (Homo sapiens, UniProt P07948); test: Invitrogen kinase assay LYN A; type: biochemical
T2 construct: purchased Invitrogen
T2 sequence (P07948 whole entry): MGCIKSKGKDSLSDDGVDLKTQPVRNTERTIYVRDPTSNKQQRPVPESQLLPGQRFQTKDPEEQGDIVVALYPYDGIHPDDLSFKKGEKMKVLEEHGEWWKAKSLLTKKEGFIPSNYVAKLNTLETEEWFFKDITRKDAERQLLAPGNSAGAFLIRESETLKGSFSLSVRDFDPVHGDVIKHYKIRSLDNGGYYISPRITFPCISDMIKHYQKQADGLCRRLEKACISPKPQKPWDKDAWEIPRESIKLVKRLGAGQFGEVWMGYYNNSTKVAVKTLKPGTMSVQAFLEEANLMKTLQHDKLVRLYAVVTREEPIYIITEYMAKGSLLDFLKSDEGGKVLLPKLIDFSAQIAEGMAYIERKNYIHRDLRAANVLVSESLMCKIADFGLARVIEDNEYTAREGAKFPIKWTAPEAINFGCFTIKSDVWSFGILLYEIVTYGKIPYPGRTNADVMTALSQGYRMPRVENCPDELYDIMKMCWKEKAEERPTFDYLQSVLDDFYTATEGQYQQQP
Protocol: as §1

MAP4K2 (GCK) = target: T3, MAP4K2 (GCK) (Homo sapiens, UniProt Q12851); test: Invitrogen kinase assay MAP4K2 (GCK); type: biochemical
T3 construct: purchased Invitrogen
T3 sequence (Q12851 whole entry): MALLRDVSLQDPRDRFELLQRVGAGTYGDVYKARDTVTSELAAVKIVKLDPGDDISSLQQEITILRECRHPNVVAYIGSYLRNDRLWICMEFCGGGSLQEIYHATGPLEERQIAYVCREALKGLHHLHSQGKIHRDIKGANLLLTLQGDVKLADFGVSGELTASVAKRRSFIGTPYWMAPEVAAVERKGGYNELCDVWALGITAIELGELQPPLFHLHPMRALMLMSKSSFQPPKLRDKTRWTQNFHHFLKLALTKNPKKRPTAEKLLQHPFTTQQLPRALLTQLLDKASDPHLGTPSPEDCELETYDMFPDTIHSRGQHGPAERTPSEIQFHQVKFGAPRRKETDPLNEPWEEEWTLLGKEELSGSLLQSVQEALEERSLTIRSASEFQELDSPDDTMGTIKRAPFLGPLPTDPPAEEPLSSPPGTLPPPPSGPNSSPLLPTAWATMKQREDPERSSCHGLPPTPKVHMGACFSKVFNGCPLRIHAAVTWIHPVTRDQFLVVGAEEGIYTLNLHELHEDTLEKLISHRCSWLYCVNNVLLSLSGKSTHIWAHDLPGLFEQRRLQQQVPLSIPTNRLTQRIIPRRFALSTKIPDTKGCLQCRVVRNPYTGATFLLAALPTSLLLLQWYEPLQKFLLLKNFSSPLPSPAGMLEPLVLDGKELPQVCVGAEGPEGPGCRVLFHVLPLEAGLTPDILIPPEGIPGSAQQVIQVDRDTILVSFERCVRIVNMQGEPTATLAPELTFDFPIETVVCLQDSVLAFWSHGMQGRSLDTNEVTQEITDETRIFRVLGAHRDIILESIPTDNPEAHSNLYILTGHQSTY
Protocol: as §1

[1] = target: T4, MAPK14 (p38 alpha) Direct (Homo sapiens, UniProt Q16539); test: Invitrogen kinase assay MAPK14 (p38 alpha) Direct; type: biochemical
T4 construct: purchased Invitrogen
T4 sequence (Q16539 whole entry): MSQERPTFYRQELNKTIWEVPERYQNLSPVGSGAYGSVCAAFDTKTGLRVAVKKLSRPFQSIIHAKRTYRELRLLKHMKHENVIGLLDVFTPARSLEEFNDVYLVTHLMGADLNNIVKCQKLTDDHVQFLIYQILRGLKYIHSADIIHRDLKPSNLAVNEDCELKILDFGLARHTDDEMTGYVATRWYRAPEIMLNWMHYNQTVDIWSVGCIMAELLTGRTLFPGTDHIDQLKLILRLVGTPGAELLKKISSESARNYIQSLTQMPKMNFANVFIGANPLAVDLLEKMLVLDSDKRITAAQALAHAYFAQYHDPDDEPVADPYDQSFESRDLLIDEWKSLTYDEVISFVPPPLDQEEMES
Protocol: as §1

[2] = microsome stability (mouse); type: in vitro ADME; details: microsomes, read-out: microsome stability (T1/2, min)
Protocol: (§2) The compounds were tested against several different cell lines, and the ED50 values determined, along with the microsome stability.

HCK [3] = target: T5, HCK (Homo sapiens, UniProt P08631); test: HCK inhibition in MYD88 mutated cells; type: cell-based; details: MYD88 mutated WM and ABC DLBCL cell lines and primary WM cells
T5 sequence (P08631 whole entry): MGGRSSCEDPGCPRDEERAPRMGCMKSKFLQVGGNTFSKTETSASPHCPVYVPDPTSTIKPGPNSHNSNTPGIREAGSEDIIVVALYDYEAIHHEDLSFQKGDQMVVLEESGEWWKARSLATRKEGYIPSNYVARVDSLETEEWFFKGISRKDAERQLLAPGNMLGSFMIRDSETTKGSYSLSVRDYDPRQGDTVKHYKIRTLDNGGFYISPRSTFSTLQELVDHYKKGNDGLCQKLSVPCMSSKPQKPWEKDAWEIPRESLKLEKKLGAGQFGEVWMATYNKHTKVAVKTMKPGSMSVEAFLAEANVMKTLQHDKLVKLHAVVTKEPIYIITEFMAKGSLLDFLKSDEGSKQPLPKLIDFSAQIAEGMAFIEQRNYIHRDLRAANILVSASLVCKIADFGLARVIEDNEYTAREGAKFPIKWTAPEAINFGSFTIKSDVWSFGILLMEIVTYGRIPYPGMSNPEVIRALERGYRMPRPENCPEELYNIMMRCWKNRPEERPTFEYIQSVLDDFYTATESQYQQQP

[4] = microsome stability (human); type: in vitro ADME; details: microsomes, read-out: microsome stability (T1/2, min)
Protocol: as §2

ABL1 = target: T6, ABL1 (Homo sapiens, UniProt P00519); test: Invitrogen kinase assay ABL1; type: biochemical
T6 construct: purchased Invitrogen
Protocol: as §1

TAOK1 = target: T7, TAOK1 (Homo sapiens, UniProt Q7L7X3); test: Invitrogen kinase assay TAOK1; type: biochemical
T7 construct: purchased Invitrogen
Protocol: as §1

[5] = test system: MYD88 mutated ABC DLBCL TMD8 xenograft; test: In-vivo rat efficacy study in MYD88 mutated ABC DLBCL TMD8 xenografted rats
Protocol: Example 1. In-Vivo Rat Efficacy Study in MYD88 Mutated ABC DLBCL TMD8 Xenografted Rats
A rat efficacy study for was carried out with Compound (I-1) using an MYD88 mutated ABC DLBCL TMD8 xenografted rat model.

[6] = microsome stability (rat); type: in vitro ADME; details: microsomes, read-out: microsome stability (T1/2, min)
Protocol: as §2

LCK = target: T8, LCK (Homo sapiens, UniProt P06239); test: Invitrogen kinase assay LCK; type: biochemical
T8 construct: purchased Invitrogen
Protocol: as §1

FER = target: T9, FER (Homo sapiens, UniProt P16591); test: Invitrogen kinase assay FER; type: biochemical
T9 construct: purchased Invitrogen
T9 sequence (P16591 whole entry): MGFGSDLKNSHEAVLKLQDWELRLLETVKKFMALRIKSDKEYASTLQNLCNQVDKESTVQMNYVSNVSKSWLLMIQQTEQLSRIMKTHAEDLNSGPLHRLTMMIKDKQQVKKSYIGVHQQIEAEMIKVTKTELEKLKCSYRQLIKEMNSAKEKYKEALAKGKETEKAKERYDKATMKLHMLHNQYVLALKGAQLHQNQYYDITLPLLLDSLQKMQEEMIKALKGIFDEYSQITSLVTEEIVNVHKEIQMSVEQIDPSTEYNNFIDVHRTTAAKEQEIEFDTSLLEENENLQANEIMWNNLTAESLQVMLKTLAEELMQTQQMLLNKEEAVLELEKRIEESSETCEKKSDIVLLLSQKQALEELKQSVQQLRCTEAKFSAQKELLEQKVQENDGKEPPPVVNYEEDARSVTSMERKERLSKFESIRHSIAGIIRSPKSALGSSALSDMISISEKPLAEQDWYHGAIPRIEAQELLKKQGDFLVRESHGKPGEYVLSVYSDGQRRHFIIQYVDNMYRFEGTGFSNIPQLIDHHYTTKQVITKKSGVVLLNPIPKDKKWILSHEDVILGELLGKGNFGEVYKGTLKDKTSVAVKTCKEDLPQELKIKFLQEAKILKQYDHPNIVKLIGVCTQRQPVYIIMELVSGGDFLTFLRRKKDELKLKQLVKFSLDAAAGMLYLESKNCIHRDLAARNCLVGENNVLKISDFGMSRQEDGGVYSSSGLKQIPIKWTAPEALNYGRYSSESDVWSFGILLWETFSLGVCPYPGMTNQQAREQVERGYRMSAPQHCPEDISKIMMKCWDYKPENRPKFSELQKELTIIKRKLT
Protocol: as §1

ABL2 (Arg) = target: T10, ABL2 (Arg) (Homo sapiens, UniProt P42684); test: Invitrogen kinase assay ABL2 (Arg); type: biochemical
T10 construct: purchased Invitrogen
Protocol: as §1

HCK [7] = target: T5, HCK; test: Invitrogen kinase assay HCK; type: biochemical; design: purchased Invitrogen
Protocol: as §1

TAOK3 (JIK) = target: T11, TAOK3 (JIK) (Homo sapiens, UniProt Q9H2K8); test: Invitrogen kinase assay TAOK3 (JIK); type: biochemical
T11 construct: purchased Invitrogen
T11 sequence (Q9H2K8 whole entry): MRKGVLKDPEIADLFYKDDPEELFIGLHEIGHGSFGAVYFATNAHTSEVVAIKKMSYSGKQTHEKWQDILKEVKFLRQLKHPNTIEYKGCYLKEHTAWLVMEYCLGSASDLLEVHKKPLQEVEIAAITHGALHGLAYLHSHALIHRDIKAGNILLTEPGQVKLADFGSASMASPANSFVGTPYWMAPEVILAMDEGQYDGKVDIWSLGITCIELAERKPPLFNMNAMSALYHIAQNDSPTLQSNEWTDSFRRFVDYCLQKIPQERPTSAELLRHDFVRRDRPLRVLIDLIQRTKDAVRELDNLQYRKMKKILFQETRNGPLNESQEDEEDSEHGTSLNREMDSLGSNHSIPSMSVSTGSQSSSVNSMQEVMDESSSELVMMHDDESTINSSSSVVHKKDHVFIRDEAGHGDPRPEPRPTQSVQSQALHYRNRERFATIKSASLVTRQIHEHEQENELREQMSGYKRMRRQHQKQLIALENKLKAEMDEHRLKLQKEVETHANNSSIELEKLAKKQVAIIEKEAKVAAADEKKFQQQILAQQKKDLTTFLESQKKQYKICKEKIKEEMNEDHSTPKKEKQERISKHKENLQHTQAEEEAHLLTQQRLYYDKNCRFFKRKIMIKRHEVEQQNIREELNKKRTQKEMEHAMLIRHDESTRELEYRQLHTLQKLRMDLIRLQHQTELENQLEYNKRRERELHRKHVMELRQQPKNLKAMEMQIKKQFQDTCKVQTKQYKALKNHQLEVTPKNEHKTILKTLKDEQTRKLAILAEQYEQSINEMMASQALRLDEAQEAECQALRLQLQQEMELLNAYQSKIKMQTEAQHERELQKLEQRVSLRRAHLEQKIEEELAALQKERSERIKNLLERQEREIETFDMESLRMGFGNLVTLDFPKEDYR
Protocol: as §1

FES (FPS) = target: T12, FES (FPS) (Homo sapiens, UniProt P07332); test: Invitrogen kinase assay FES (FPS); type: biochemical
T12 construct: purchased Invitrogen
Protocol: as §1

[8] = target: T13, MAP3K7/MAP3K7IP1 (TAK1-TAB1) (Homo sapiens, UniProt O43318); test: Invitrogen kinase assay MAP3K7/MAP3K7IP1 (TAK1-TAB1); type: biochemical
T13 construct: purchased Invitrogen
Protocol: as §1

MAP4K1 (HPK1) = target: T14, MAP4K1 (HPK1) (Homo sapiens, UniProt Q92918); test: Invitrogen kinase assay MAP4K1 (HPK1); type: biochemical
T14 construct: purchased Invitrogen
Protocol: as §1

[9] = test system: healthy donor B- and T-cells; test: Effect on healthy donor B- and T-cells; type: cell-based
HCK, BTK, and NFκB = test: Pharmacodynamic studies in mice; type: in vivo
[10] = test system: MYD88 mutated WM and ABC DLBCL cell lines, primary WM cells; test: Apoptotic effects in MYD88 mutated cells; type: cell-based; details: vs. ibrutinib or A419259
FGR = target: T15, FGR (Homo sapiens, UniProt P09769); test: Invitrogen kinase assay FGR; type: biochemical
T15 construct: purchased Invitrogen
T15 sequence (P09769 whole entry): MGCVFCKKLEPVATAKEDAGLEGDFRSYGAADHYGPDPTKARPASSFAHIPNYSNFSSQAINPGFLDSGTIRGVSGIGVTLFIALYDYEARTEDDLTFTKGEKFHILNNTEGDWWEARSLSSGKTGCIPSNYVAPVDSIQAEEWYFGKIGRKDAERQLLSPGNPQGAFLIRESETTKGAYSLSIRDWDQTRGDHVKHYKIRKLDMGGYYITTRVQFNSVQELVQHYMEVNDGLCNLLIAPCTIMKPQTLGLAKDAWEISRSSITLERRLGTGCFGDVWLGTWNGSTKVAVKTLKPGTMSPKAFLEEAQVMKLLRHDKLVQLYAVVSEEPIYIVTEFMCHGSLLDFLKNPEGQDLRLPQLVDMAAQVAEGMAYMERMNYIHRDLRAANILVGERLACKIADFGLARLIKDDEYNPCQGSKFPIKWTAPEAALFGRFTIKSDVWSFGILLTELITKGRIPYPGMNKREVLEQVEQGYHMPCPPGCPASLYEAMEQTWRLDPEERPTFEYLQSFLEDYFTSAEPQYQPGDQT
Protocol: as §1

SRC = target: T16, SRC (Homo sapiens, UniProt P12931); test: Invitrogen kinase assay SRC; type: biochemical
T16 construct: purchased Invitrogen
Protocol: as §1

TAOK2 (TAO1) = target: T17, TAOK2 (TAO1) (Homo sapiens, UniProt Q9UL54); test: Invitrogen kinase assay TAOK2 (TAO1); type: biochemical
T17 construct: purchased Invitrogen
Protocol: as §1

T1 sequence (P06241 whole entry): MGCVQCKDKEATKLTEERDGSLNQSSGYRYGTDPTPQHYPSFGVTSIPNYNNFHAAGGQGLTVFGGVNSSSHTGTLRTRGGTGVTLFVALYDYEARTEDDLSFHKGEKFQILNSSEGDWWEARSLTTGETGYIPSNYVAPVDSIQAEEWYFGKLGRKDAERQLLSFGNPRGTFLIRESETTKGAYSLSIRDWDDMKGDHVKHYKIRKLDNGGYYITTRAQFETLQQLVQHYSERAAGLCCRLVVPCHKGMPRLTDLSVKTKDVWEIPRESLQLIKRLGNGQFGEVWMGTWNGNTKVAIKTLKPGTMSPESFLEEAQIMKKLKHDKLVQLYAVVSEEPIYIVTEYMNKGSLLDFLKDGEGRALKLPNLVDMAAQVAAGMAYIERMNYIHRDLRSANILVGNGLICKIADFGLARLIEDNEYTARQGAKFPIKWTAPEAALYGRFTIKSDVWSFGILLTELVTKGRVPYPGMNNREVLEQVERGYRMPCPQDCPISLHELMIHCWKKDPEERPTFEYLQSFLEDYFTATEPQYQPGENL

SMILES: CCN1CCN(Cc2ccc(NC(=O)c3ccc(C)c(Oc4ncnc5cc(NC)c(OC)cc45)c3)cc2C(F)(F)F)CC1 [Compound (I-1), N-(4-((4-ethylpiperazin-1-yl)methyl)-3-(trifluoromethyl)phenyl)-3-(6-methoxy-7-(methylamino)quinazolin-4-yloxy)-4-methylbenzamide]
IC50 (FYN): 419 nM | IC50 (LYN A): 8.77 nM | IC50 (MAP4K2 (GCK)): 8.35 nM | IC50 [1]: 79.7 nM | half-life [2]: 42.4 min | HCK inhibition (HCK [3]): inhibits HCK in a dose dependent Type II inhibition | half-life [4]: 79.3 min | IC50 (ABL1): 32.3 nM | IC50 (TAOK1): 194 nM | Mean tumor volume compared to vehicle ([5]; 30 mg/kg, TMD8 xenografted rat model): lower Mean tumor volume compared to vehicle | survival days ([5]; TMD8 xenograft model, vehicle 22 survival days): 43 days | half-life [6]: 60.2 min | IC50 (LCK): 4.73 nM | IC50 (FER): 9.81 nM | IC50 (ABL2 (Arg)): 45.5 nM | IC50 (HCK [7]): 7.39 nM | IC50 (TAOK3 (JIK)): 413 nM | IC50 (FES (FPS)): 11 nM | IC50 [8]: 24.1 nM | IC50 (MAP4K1 (HPK1)): 11.8 nM | effect on healthy donor B- and T-cells [9]: sparing of healthy donor B- and T-cells | Pharmacodynamic inhibition of HCK, BTK, and NFκB (HCK, BTK, and NFκB): inhibition of HCK, BTK, and NFκB | tumor redistribution (HCK, BTK, and NFκB): dose-related tumor redistribution | apoptotic effects [10]: potent apoptotic effects | IC50 (FGR): 8.02 nM | IC50 (SRC): 77.5 nM | IC50 (TAOK2 (TAO1)): 61.3 nM

half-life [2]: 41.7 min
SMILES: CCN1CCN(Cc2ccc(NC(=O)c3ccc(C)c(Oc4ncnc5cc(N)c(OC)cc45)c3)cc2C(F)(F)F)CC1 [Compound (I-2), 3-(7-amino-6-methoxyquinazolin-4-yloxy)-N-(4-((4-ethylpiperazin-1-yl)methyl)-3-(trifluoromethyl)phenyl)-4-methylbenzamide]

half-life [2]: 5.7 min
SMILES: COc1cc2c(Oc3cc(C(=O)Nc4cccc(C(F)(F)F)c4)ccc3C)ncnc2cc1NCCN1CCN(C)CC1 [Compound (I-4), 3-(6-methoxy-7-(2-(4-methylpiperazin-1-yl)ethylamino)quinazolin-4-yloxy)-4-methyl-N-(3-(trifluoromethyl)phenyl)benzamide]

half-life [2]: 20.4 min
SMILES: CCN1CCN(Cc2ccc(NC(=O)c3ccc(C)c(Oc4ncnc5cc(NC)ccc45)c3)cc2C(F)(F)F)CC1 [Compound (I-14), N-(4-((4-ethylpiperazin-1-yl)methyl)-3-(trifluoromethyl)phenyl)-4-methyl-3-(7-(methylamino)quinazolin-4-yloxy)benzamide]

half-life [2]: 8.6 min
SMILES: CCN1CCN(Cc2ccc(NC(=O)c3ccc(C)c(Oc4ncnc5cc6[nH]cnc6cc45)c3)cc2C(F)(F)F)CC1 [Compound (I-16), 3-(3H-imidazo[4,5-g]quinazolin-8-yloxy)-N-(4-((4-ethylpiperazin-1-yl)methyl)-3-(trifluoromethyl)phenyl)-4-methylbenzamide]

Reference: patent US20230339865A1, “QUINAZOLINE-DERIVED HCK INHIBITORS FOR USE IN THE TREATMENT OF MYD88 MUTATED DISEASES” (Dana-Farber Cancer Institute, Inc., priority 2020, published 2023)
